Experimental data: ChEMBL document CHEMBL5465560, “Selectivity Literature for EUbOPEN Chemogenomic Library” (2024)
One block for each molecule: values may come before it.

Key:
[1] = molecular target: Casein kinase I isoform gamma-2 (Homo sapiens) (UniProt P78368); conditions: at 10 µM
Misshapen-like kinase 1 = Misshapen-like kinase 1 (Homo sapiens, UniProt Q8N4C8); test: Selectivity interaction (Kinase panel (literature)) EUB0001199aCl MINK1; conditions: at 1 µM
[2] = tested on: Epidermal growth factor receptor (Homo sapiens), P00533 [G719S]; conditions: at 10 µM
Epidermal growth factor receptor (Homo sapiens), P00533 [G719S], sequence (P00533 whole entry G719S): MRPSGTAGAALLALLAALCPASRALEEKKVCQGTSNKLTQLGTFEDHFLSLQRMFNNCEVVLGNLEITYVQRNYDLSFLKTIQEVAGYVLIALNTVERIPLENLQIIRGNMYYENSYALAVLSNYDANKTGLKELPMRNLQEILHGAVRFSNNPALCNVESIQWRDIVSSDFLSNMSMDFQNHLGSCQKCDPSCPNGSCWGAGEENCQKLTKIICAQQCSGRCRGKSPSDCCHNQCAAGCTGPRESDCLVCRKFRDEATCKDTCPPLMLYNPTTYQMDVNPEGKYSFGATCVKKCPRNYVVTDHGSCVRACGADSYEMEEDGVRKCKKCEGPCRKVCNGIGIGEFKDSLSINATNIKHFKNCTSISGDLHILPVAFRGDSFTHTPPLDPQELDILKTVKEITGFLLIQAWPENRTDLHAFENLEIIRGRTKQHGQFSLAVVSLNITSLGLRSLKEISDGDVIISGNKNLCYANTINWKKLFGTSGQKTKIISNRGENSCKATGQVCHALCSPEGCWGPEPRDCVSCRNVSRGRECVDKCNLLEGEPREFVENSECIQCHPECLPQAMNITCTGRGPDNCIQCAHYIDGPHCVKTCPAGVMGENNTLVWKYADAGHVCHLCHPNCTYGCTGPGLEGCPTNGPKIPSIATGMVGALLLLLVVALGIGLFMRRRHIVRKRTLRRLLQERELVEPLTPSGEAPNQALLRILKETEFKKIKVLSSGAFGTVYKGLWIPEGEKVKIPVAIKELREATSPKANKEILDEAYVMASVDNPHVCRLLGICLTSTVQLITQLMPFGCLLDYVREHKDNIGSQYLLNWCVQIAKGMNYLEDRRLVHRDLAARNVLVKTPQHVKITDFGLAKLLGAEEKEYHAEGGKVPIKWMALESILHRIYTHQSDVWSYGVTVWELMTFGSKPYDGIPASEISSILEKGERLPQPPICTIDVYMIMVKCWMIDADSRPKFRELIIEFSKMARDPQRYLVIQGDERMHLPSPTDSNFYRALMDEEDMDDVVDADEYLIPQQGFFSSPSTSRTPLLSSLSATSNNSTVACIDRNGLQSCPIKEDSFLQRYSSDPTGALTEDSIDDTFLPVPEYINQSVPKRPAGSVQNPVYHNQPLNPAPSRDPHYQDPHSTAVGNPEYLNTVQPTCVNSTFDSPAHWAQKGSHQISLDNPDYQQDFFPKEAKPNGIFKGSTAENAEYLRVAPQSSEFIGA

[3] = tested on: T1, Receptor-type tyrosine-protein kinase FLT3 (Homo sapiens), P36888 [R834Q]; conditions: at 10 µM
T1 sequence (whole entry): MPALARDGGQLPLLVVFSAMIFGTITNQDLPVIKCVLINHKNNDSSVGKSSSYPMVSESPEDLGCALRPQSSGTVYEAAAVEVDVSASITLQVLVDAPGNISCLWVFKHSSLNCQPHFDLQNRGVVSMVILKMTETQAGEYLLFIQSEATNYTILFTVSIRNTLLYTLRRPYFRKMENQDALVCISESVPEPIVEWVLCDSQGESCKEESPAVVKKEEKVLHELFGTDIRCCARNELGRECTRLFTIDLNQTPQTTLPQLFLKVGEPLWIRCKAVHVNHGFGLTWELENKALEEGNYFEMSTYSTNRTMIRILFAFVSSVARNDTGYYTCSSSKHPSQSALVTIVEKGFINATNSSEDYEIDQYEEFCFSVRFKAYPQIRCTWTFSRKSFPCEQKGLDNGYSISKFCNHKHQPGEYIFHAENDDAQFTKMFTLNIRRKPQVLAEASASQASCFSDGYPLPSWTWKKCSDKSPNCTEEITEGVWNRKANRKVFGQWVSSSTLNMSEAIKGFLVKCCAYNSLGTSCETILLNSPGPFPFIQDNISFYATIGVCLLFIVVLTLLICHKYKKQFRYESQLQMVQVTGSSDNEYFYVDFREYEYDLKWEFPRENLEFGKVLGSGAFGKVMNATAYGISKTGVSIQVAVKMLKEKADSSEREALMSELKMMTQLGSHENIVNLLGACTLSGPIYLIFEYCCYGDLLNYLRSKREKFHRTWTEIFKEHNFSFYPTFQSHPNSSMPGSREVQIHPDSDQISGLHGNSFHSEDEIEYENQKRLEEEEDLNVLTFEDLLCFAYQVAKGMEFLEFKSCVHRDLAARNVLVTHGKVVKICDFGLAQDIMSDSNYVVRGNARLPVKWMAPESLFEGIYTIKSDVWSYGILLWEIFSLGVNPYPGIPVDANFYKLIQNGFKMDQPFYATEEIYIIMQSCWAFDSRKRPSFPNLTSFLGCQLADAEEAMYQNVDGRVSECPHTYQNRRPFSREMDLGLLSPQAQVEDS

[4] = molecular target: Cyclin-dependent kinase 2 (Homo sapiens, UniProt P24941); test: Selectivity interaction (ActivX KiNativ screen (kinase selectivity in THP-1 cell lysates)) EUB0000639a CDK2; type: subcellular; conditions: lysate, at 0.01 µM
[5] = molecular target: T2, Protein kinase C iota type (Homo sapiens) (UniProt P41743); test: Selectivity interaction (KinomeScan (DiscoverX)) EUB0001049a PRKCI; conditions: at 1 µM
T2 sequence (whole entry): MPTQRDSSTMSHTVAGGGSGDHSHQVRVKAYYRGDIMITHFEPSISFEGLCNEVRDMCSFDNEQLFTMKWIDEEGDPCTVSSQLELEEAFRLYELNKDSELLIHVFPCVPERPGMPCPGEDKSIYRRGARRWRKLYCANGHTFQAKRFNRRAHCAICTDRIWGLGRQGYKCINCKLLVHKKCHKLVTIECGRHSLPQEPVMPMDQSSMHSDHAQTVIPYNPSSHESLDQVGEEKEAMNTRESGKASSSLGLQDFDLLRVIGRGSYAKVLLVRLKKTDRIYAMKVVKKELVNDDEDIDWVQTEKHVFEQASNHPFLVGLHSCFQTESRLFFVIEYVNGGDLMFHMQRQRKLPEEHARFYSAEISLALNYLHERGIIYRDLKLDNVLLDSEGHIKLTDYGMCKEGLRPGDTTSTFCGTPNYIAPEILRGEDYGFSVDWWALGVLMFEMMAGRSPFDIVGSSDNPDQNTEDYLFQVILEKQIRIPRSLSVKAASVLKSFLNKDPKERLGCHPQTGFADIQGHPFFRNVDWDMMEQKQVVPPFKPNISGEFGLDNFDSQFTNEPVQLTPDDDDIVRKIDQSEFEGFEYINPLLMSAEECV

Casein kinase I isoform gamma-2 (Homo sapiens), sequence (P78368 whole entry, looked up, canonical isoform): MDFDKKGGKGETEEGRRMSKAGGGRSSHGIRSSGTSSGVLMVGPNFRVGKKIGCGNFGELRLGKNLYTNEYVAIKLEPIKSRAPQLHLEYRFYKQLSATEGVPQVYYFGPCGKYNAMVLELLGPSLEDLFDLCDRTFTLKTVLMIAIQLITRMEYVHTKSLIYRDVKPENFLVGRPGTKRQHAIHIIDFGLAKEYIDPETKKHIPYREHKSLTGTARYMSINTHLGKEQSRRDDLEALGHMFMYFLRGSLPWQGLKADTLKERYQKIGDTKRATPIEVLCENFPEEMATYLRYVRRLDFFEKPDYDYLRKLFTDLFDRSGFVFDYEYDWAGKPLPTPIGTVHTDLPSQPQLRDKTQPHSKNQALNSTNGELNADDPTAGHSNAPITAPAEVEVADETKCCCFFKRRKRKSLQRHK
Misshapen-like kinase 1, sequence (Q8N4C8 whole entry, looked up): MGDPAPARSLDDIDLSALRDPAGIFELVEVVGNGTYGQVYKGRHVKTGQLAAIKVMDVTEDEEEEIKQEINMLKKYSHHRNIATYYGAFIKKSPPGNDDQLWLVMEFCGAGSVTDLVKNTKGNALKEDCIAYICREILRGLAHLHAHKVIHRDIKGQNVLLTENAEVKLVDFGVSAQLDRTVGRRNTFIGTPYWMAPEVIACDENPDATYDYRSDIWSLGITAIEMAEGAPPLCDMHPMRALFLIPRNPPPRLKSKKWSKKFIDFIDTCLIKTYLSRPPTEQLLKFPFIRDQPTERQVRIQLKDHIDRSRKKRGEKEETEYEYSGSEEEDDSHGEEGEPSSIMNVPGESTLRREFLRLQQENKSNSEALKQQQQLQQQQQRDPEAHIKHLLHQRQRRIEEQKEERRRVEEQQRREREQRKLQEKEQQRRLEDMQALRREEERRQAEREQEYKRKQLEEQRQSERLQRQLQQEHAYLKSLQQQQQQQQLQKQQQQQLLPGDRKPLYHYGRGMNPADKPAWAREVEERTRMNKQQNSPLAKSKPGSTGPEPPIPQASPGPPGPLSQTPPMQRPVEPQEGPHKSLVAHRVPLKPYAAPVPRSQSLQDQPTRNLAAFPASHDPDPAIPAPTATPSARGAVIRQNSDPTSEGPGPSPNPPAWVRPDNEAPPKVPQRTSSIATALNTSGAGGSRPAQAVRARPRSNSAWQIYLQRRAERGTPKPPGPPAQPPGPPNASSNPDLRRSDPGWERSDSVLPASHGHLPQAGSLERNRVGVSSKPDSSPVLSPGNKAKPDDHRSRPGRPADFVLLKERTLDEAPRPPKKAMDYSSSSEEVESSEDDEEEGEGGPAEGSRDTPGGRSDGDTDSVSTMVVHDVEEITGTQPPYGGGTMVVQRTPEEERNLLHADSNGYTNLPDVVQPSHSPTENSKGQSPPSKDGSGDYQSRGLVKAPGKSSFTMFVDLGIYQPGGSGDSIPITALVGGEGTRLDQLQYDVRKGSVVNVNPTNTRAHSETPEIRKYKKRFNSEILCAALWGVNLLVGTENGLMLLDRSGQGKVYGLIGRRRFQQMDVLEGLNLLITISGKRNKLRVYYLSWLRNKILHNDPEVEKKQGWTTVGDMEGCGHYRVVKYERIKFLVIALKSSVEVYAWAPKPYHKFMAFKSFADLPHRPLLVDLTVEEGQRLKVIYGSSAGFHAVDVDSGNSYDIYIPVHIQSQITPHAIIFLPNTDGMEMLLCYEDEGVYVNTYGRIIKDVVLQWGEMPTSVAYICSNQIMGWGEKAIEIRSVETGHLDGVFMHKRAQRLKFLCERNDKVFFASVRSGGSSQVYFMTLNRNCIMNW

% of control [1]: 100%
Compound: CCN(CC)CCCCNc1ncc2cc(-c3cc(OC)cc(OC)c3)c(NC(=O)NC(C)(C)C)nc2n1

% of inhibition (Misshapen-like kinase 1): 42%
Compound: CN1Cc2nccc(-c3cn(C)nc3-c3ccc(F)cc3)c2C1=O

Compound: COCC(=O)NC/C=C/c1ccc2ncnc(Nc3ccc(Oc4ccc(C)nc4)c(C)c3)c2c1 [CP-724714]
% of control [2]: 0%

Compound: Cc1cc([C@@H](C)Nc2ccccc2C(=O)O)c2nc(N3CCOCC3)cc(=O)n2c1 [AZD-6482]
% of control [3]: 94%

% of inhibition [4]: 0.3%
Compound: CC[C@@H]1[C@H](F)C(=O)N[C@@H]1COc1nccc2cc(C(N)=O)c(OC)cc12 [ZIMLOVISERTIB]

Compound: COc1cc(Nc2nc(C)cc(-c3cnn4nc(OC)ccc34)n2)cc(C(F)(F)F)c1
% of control [5]: 79%
